Measured values taken from the kinase profiling compilation of Christmann-Franck et al. (2016).

Legend:
Experiment in all cases: radiometric filter-binding kinase assay, Kinase HotSpot
Details in all cases: compound 0.5 µM; ATP 10 µM
[1] = target: MAP3K8 (human) (UniProt P41279)
[2] = test system: PRKCQ (human), Q04759 [P330L]
[3] = target: MET (human) (UniProt P08581)
[4] = target: MAPKAPK2 (human) (UniProt P49137)
[5] = target: CLK1 (human) (UniProt P49759)
[6] = target: RPS6KA6 KD1 KD2 (human) (UniProt Q9UK32)
[7] = target: YES1 (human) (UniProt P07947)
[8] = target: RPS6KA1 KD1 KD2 (human) (UniProt Q15418)
[9] = target: RET (human) (UniProt P07949)
[10] = target: PRKCG (human) (UniProt P05129)
[11] = target: MAP3K7 TAB1 (human) (UniProt O43318+Q15750)
[12] = target: PRKCE (human) (UniProt Q02156)
[13] = target: PASK (human) (UniProt Q96RG2)
[14] = target: MAPKAPK3 (human) (UniProt Q16644)
[15] = target: ULK1 (human) (UniProt O75385)
[16] = target: EPHA7 (human) (UniProt Q15375)
[17] = target: MAP4K5 (human) (UniProt Q9Y4K4)
[18] = target: RPS6KA5 KD2 (human) (UniProt O75582)
[19] = target: PTK2 (human) (UniProt Q05397)
[20] = target: CLK4 (human) (UniProt Q9HAZ1)
[21] = target: CAMK2A (human) (UniProt Q9UQM7)
[22] = target: EPHB4 (human) (UniProt P54760)
[23] = target: ADRBK1 (human) (UniProt P25098)
[24] = target: MAP3K10 (human) (UniProt Q02779)
[25] = target: IGF1R (human) (UniProt P08069)
[26] = target: CHUK (human) (UniProt O15111)
[27] = target: PTK6 (human) (UniProt Q13882)
[28] = target: PRKD3 (human) (UniProt O94806)
[29] = target: KDR (human) (UniProt P35968)
[30] = target: PIM1 (human) (UniProt P11309)
[31] = target: NTRK1 (human) (UniProt P04629)
[32] = target: STK25 (human) (UniProt O00506)
[33] = target: PRKCB2 (human) (UniProt P05771)
[34] = target: AURKB (human) (UniProt Q96GD4)
[35] = target: MAPK10 (human) (UniProt P53779)
[36] = target: IRAK4 (human) (UniProt Q9NWZ3)
[37] = target: TAOK1 (human) (UniProt Q7L7X3)
[38] = target: CDK2 CCNE1 (human) (UniProt P24941+P24864)
[39] = target: RPS6KA4 KD2 (human) (UniProt O75676)
[40] = target: SRPK1 (human) (UniProt Q96SB4)
[41] = target: ERBB2 (human) (UniProt P04626)
[42] = target: EPHB3 (human) (UniProt P54753)

MAP4K5 (human), sequence (Q9Y4K4 whole entry, looked up): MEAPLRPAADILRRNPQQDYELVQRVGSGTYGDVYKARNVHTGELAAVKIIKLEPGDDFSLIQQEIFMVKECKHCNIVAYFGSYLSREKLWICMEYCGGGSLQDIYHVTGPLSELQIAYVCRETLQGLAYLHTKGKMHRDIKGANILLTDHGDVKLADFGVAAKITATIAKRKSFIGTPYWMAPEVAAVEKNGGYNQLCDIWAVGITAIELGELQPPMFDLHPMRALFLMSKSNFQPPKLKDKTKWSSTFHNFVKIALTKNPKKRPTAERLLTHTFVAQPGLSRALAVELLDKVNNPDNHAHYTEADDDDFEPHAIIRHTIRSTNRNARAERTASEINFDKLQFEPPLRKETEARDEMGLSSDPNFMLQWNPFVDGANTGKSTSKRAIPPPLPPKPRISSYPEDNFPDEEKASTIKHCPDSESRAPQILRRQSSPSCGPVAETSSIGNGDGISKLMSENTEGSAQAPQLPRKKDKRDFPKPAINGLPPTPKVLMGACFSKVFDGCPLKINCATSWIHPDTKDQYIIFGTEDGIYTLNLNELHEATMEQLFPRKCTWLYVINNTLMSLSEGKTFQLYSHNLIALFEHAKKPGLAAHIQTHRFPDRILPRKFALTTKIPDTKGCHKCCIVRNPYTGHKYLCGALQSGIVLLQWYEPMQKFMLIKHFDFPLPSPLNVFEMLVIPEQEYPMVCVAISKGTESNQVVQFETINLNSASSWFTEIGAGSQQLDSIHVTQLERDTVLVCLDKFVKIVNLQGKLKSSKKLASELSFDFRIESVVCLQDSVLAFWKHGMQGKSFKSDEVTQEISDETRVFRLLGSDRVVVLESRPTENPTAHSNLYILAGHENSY
MAPKAPK2 (human), sequence (P49137 whole entry, looked up): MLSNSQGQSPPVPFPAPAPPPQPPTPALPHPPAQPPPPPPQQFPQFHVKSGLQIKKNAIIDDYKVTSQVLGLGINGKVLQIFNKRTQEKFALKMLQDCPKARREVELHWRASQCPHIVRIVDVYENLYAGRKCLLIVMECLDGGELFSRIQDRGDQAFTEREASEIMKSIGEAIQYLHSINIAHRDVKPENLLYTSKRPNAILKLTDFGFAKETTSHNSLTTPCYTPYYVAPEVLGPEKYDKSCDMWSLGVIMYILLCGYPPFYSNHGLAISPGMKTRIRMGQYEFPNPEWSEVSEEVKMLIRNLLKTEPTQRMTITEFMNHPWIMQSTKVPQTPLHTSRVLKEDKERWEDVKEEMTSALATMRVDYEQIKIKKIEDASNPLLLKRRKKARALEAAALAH
NTRK1 (human), sequence (P04629 whole entry, looked up): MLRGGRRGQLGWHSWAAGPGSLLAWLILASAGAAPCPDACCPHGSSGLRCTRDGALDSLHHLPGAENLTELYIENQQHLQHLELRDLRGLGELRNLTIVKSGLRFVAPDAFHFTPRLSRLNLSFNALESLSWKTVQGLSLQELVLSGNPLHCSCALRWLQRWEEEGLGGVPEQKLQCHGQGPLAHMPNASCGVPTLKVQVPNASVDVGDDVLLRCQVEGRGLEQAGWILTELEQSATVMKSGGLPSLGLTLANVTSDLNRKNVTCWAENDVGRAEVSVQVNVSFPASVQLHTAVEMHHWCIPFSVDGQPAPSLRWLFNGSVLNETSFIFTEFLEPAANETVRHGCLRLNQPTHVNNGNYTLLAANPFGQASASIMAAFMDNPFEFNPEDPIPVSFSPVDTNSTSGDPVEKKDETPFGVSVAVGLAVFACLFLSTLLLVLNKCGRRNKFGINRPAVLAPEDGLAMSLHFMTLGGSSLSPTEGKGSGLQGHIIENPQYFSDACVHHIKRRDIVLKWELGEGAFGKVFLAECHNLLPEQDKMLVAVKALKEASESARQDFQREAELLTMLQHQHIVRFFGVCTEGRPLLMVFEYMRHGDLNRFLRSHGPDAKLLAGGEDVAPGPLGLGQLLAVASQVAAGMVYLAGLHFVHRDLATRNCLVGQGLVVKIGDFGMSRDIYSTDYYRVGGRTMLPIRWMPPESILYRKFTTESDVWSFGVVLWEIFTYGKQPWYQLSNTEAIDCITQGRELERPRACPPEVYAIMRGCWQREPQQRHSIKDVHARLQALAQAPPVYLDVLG
CLK4 (human), sequence (Q9HAZ1 whole entry, looked up): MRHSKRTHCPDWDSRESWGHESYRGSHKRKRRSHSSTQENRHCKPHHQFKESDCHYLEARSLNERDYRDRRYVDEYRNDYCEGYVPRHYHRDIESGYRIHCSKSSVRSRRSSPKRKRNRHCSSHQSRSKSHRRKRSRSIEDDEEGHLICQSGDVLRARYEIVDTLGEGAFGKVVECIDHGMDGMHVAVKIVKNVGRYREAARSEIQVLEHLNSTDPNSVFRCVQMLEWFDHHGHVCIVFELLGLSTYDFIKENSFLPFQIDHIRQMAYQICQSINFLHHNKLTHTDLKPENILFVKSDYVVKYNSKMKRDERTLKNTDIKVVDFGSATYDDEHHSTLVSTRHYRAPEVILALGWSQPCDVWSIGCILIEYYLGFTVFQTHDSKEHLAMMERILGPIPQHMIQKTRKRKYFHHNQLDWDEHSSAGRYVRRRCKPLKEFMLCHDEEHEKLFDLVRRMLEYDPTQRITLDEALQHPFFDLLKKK
RPS6KA6 KD1 KD2 (human), sequence (Q9UK32 whole entry, looked up): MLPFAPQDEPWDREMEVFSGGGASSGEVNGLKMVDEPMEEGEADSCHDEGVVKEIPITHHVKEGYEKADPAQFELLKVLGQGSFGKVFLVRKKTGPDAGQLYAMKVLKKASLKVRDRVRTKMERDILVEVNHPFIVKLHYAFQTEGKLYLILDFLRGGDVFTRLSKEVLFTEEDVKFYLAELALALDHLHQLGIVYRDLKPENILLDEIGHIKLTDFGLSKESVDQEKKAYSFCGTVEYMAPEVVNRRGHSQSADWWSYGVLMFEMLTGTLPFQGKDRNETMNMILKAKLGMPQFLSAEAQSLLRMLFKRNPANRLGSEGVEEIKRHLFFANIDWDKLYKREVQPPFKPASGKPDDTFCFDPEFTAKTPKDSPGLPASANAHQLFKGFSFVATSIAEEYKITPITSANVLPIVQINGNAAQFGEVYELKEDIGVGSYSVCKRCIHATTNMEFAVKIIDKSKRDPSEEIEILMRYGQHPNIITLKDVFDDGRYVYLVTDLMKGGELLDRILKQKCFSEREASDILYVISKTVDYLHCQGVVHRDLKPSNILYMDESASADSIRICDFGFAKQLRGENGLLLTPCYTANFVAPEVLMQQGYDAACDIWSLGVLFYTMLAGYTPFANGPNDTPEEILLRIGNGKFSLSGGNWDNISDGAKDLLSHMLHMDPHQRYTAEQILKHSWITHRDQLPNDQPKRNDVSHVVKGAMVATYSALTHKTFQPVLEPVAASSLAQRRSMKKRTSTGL
PTK6 (human), sequence (Q13882 whole entry, looked up): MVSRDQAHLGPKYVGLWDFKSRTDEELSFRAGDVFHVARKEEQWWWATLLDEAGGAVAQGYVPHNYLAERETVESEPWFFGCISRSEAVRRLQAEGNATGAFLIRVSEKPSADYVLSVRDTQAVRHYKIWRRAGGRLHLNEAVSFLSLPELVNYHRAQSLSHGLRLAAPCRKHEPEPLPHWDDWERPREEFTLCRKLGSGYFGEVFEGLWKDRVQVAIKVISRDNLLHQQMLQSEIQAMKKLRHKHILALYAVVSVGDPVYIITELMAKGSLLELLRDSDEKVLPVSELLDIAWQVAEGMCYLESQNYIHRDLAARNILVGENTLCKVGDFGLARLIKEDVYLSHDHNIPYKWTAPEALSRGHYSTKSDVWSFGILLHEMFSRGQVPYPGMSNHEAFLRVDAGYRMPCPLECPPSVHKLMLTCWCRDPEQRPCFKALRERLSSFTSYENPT
PRKCE (human), sequence (Q02156 whole entry, looked up): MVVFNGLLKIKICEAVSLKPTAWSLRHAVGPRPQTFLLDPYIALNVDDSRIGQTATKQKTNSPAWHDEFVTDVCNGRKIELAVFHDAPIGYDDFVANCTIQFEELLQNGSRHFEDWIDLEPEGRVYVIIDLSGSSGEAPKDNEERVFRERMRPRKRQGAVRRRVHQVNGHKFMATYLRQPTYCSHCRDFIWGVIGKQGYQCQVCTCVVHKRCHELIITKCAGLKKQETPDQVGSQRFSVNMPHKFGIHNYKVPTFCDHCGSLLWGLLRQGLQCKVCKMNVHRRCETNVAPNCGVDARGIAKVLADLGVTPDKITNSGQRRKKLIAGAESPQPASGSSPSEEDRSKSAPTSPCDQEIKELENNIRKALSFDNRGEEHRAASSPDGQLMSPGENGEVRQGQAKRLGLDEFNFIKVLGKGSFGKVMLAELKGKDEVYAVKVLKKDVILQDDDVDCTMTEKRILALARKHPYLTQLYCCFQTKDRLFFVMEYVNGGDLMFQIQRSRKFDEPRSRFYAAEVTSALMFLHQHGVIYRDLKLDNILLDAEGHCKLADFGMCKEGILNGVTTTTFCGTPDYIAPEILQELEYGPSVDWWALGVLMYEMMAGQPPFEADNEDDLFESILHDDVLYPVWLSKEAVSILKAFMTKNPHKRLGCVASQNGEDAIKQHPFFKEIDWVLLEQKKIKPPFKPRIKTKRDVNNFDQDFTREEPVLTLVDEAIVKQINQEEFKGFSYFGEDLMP
PIM1 (human), sequence (P11309 whole entry, looked up): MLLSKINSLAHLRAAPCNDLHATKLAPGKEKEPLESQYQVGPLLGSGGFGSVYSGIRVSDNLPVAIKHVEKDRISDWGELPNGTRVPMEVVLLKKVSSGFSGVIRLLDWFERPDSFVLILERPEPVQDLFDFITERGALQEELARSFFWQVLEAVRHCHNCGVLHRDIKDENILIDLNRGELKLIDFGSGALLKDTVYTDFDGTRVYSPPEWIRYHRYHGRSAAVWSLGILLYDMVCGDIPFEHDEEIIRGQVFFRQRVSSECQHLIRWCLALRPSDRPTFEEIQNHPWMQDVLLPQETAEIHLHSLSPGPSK

CS(=O)(=O)CCNCc1ccc(-c2ccc3ncnc(Nc4ccc(OCc5cccc(F)c5)c(Cl)c4)c3c2)o1
residual activity [1]: 99.7% | residual activity [2]: 72.4% | residual activity [3]: 84.1% | residual activity [4]: 94.7% | residual activity [5]: 107% | residual activity [6]: 108% | residual activity [7]: 84.7% | residual activity [8]: 105% | residual activity [9]: 99.8% | residual activity [10]: 79.3% | residual activity [11]: 89% | residual activity [12]: 98% | residual activity [13]: 101% | residual activity [14]: 103% | residual activity [15]: 95.4% | residual activity [16]: 95.6% | residual activity [17]: 109% | residual activity [18]: 98.3% | residual activity [19]: 104% | residual activity [20]: 115% | residual activity [21]: 98.6% | residual activity [22]: 94.1% | residual activity [23]: 94.8% | residual activity [24]: 108% | residual activity [25]: 87.4% | residual activity [26]: 99.5% | residual activity [27]: 103% | residual activity [28]: 88.6% | residual activity [29]: 96.6% | residual activity [30]: 99% | residual activity [31]: 99.2% | residual activity [32]: 102% | residual activity [33]: 99.8% | residual activity [34]: 98.4% | residual activity [35]: 100% | residual activity [36]: 91.5% | residual activity [37]: 98.8% | residual activity [38]: 98.8% | residual activity [39]: 93.4% | residual activity [40]: 100%

Cc1cccc(-c2nc(C(C)(C)C)[nH]c2-c2ccc3c(c2)OCO3)n1
residual activity [1]: 94.5% | residual activity [2]: 107% | residual activity [41]: 102% | residual activity [3]: 82.7% | residual activity [4]: 103% | residual activity [5]: 98% | residual activity [6]: 107% | residual activity [7]: 97% | residual activity [8]: 96.4% | residual activity [9]: 103% | residual activity [10]: 107% | residual activity [11]: 96.3% | residual activity [12]: 97.9% | residual activity [13]: 78.9% | residual activity [14]: 94.1% | residual activity [15]: 82.7% | residual activity [16]: 81.6% | residual activity [17]: 99.2% | residual activity [18]: 97.5% | residual activity [19]: 98.1% | residual activity [20]: 95.8% | residual activity [21]: 103% | residual activity [22]: 91.4% | residual activity [23]: 105% | residual activity [24]: 99.3% | residual activity [25]: 96.2% | residual activity [26]: 108% | residual activity [27]: 87.7% | residual activity [42]: 103% | residual activity [28]: 89.3% | residual activity [29]: 94.7% | residual activity [30]: 100% | residual activity [31]: 96.5% | residual activity [32]: 104% | residual activity [33]: 99.9% | residual activity [34]: 96.5% | residual activity [35]: 96% | residual activity [36]: 86.8% | residual activity [37]: 97.6% | residual activity [38]: 95.6% | residual activity [40]: 96.5%
